# Data from patent publication US11873320B2 (REATA PHARMACEUTICALS HOLDINGS, LLC, priority 2013, dated 2024).
# pEC50, pIC50: −log10 of the molar value. Like-named read-outs stand apart in the source and are kept apart here.
# Tests used:
# [1] = test system: fractionated radiation dermatitis; experiment: fractionated radiation dermatitis model, Balb/c mice; type: in vivo, mouse; conditions: 0.1 to 1% topical formulations
# Method: The mice were irradiated on days 0-2 and 5-7 with six 10-Gy doses […]. Clinical dermatitis scores for the mice were evaluated blindly every two days from day 4 until the end of the study. […] Study and treatment parameters can be found in Table 6.
# By analyzing the average clinical scores that were shown in FIG. 43, an area under the curve (AUC) analysis was performed, which yielded the severity of the dermatitis relative to how long the dermatitis persisted.
# [2] = test system: genotoxicity (micronucleated polychromatic erythrocytes); experiment: in vivo micronucleus study
# [3] = test system: LPS-induced pulmonary inflammation; experiment: LPS-induced pulmonary inflammation in mice, first study (QD×3); type: in vivo, mouse
# Method: Animals were sacrificed 20 hours after LPS administration. BALF was examined for pro-inflammatory cytokine expression.
# [4] = metabolism in rodent liver microsomes; type: in vitro ADME, mice, rats; conditions: 60-minute incubation, NADPH and UGT
# RAW264.7 cells = experiment: WST-1 cell viability, RAW264.7; type: cell-based; conditions: Mus musculus
# Method: Inhibition of IFNγ-induced NO production by AIMs is Nrf2-dependent (Dinkova-Kostova, 2005). […] Nitrite (NO2^−) levels in the media were measured as a surrogate for nitric oxide using the Griess reagent assay. Cell viability was assessed using the WST-1 assay. […] 63170, 63171, 63179, and 63189 are compounds of the formulas: […]
# ocular inflammation = ocular inflammation after paracentesis in rabbits; type: in vivo, rabbit; conditions: 0.01% RTA 408 in the formulation
# Method: Each rabbit was given three instillations within 60 minutes before induction of paracentesis and two instillations within 30 minutes after induction of paracentesis. Each instillation was 50 μL and given in both eyes. Aqueous humor for 6 animals per time-point was collected 30 minutes and again 2 hours after induction of paracentesis. The amount of inflammation was determined by protein concentration in the aqueous humor.
# [5] = test system: TNFα-induced NF-κB activation; experiment: TNFα-induced NF-κB luciferase reporter, A549/NF-κB-Luc cells; type: cell-based; conditions: Homo sapiens
# Source text: NF-κB is a transcription factor that plays a central role in the regulation of many immune and inflammatory responses.
# CD rats = experiment: pulmonary evaluation in rats; type: in vivo, rat; conditions: doses up to and including 30 mg/kg, single oral dose
# Method: One additional group of eight animals/sex served as the control and received vehicle (sesame oil).
# Observations for mortality, morbidity, injury, and availability of food and water were conducted twice daily for all animals. Clinical observations were conducted prior to dosing, approximately 4 hours post-dose, and following completion of the 8-hour pulmonary monitoring period. […] Pulmonary function (respiratory rate, tidal volume, and minute volume) was monitored for at least 1 hour prior to dosing to establish a baseline and for at least 8 hours post-dose.
# NQO1 = NQO1 enzymatic activity in RAW264.7 cells; type: cell-based, mouse; conditions: 24 hours
# Method: Consistent with induction of Nrf2 target genes and corresponding protein products, treatment of RAW264.7 mouse macrophage cells for 24 hours increased NQO1 enzymatic activity in a dose-dependent manner, with increases evident at 7.8 nM (FIG. 6).
# [6] = test system: Nrf2 protein expression in SK-N-SH cells; experiment: in-cell western NQO1 assay, SK-N-SH cells; type: cell-based; conditions: Homo sapiens, 72 h, 3 days incubation, read-out: EC50 for induction of Nrf2 protein expression in SK-N-SH cells
# Method: HMOX1 protein was not detected in untreated or RTA 408-treated SH-SY5Y cells. […] The same amount of 63170 (54.6 nM) was required.
# The EC50 was measured using an in-cell western NQO1 assay where the cells were incubated with the compound under evaluation for 3 days. After incubation with the compound of interest, the cells were reacted with mouse NQO1 antibody and then the next day the cells were reacted with IRDye-800CW-anti-mouse IgG antibody. The target signals were visualized and then analyzed.
# [7] = oral pharmacokinetics, statements pooled over mice, rats and monkeys; type: in vivo
# [8] = metabolism in monkey liver microsomes; conditions: 60-minute incubation, NADPH and UGT
# [9] = test system: LPS-induced pulmonary inflammation
# Nrf2 target genes = experiment: Nrf2 target gene expression in HFL1 lung fibroblasts (quantitative PCR); type: cell-based, human; conditions: 18 hours
# [10] = test system: radiation-induced oral mucositis; experiment: radiation-induced oral mucositis in hamsters
# [11] = mouse tissue distribution, 25 mg/kg PO QD×3
smiles,measurement,setting,value
"CC1(C)CC[C@]2(NC(=O)C(C)(F)F)CC[C@]3(C)[C@H](C(=O)C=C4[C@@]5(C)C=C(C#N)C(=O)C(C)(C)[C@@H]5CC[C@]43C)[C@@H]2C1 [RTA 408, N-((4aS,6aR,6bS,8aR,12aS,14aR,14bS)-11-cyano-2,2,6a,6b,9,9,12a-heptamethyl-10,14-dioxo-1,2,3,4,4a,5,6,6a,6b,7,8,8a,9,10,12a,14,14a,14b-octadecahydropicen-4a-yl)-2,2-difluoropropanamide]",average clinical dermatitis scores over time,[1],statistically significant improvement in the scores
same,Change from Control (%),"[2]; 125 mg/kg, 24-h timepoint",−8%
same,Number of MPCE/1000 PCE (Mean +/− SD),"[2]; 125 mg/kg, 24-h timepoint",0.3 ± 0.27
same,Number of MPCE/PCE Scored,"[2]; 125 mg/kg, 24-h timepoint",3/10000
same,PCE/Total Erythrocytes (Mean +/− SD),"[2]; 125 mg/kg, 24-h timepoint",0.543 ± 0.03
same,Change from Control (%),"[2]; 125 mg/kg, 48-h timepoint",−14%
same,Number of MPCE/1000 PCE (Mean +/− SD),"[2]; 125 mg/kg, 48-h timepoint",0.2 ± 0.27
same,Number of MPCE/PCE Scored,"[2]; 125 mg/kg, 48-h timepoint",2/10000
same,PCE/Total Erythrocytes (Mean +/− SD),"[2]; 125 mg/kg, 48-h timepoint",0.453 ± 0.03
same,Change from Control (%),"[2]; 250 mg/kg, 24-h timepoint",−12%
same,Number of MPCE/1000 PCE (Mean +/− SD),"[2]; 250 mg/kg, 24-h timepoint",0.3 ± 0.27
same,Number of MPCE/PCE Scored,"[2]; 250 mg/kg, 24-h timepoint",3/10000
same,PCE/Total Erythrocytes (Mean +/− SD),"[2]; 250 mg/kg, 24-h timepoint",0.520 ± 0.06
same,Change from Control (%),"[2]; 250 mg/kg, 48-h timepoint",−26%
same,Number of MPCE/1000 PCE (Mean +/− SD),"[2]; 250 mg/kg, 48-h timepoint",0.2 ± 0.27
same,Number of MPCE/PCE Scored,"[2]; 250 mg/kg, 48-h timepoint",2/10000
same,PCE/Total Erythrocytes (Mean +/− SD),"[2]; 250 mg/kg, 48-h timepoint",0.391 ± 0.02
same,Change from Control (%),"[2]; 500 mg/kg, 24-h timepoint",−28%
same,Number of MPCE/1000 PCE (Mean +/− SD),"[2]; 500 mg/kg, 24-h timepoint",0.0 ± 0.00
same,Number of MPCE/PCE Scored,"[2]; 500 mg/kg, 24-h timepoint",0/10000
same,PCE/Total Erythrocytes (Mean +/− SD),"[2]; 500 mg/kg, 24-h timepoint",0.426 ± 0.07
same,Change from Control (%),"[2]; 500 mg/kg, 48-h timepoint",−36%
same,Number of MPCE/1000 PCE (Mean +/− SD),"[2]; 500 mg/kg, 48-h timepoint",0.3 ± 0.45
same,Number of MPCE/PCE Scored,"[2]; 500 mg/kg, 48-h timepoint",3/10000
same,PCE/Total Erythrocytes (Mean +/− SD),"[2]; 500 mg/kg, 48-h timepoint",0.339 ± 0.05
same,Change from Control (%),"[2]; 1000 mg/kg, 24-h timepoint",−15%
same,Number of MPCE/1000 PCE (Mean +/− SD),"[2]; 1000 mg/kg, 24-h timepoint",0.2 ± 0.27
same,Number of MPCE/PCE Scored,"[2]; 1000 mg/kg, 24-h timepoint",2/10000
same,PCE/Total Erythrocytes (Mean +/− SD),"[2]; 1000 mg/kg, 24-h timepoint",0.498 ± 0.05
same,Change from Control (%),"[2]; 1000 mg/kg, 48-h timepoint",−35%
same,Number of MPCE/1000 PCE (Mean +/− SD),"[2]; 1000 mg/kg, 48-h timepoint",0.1 ± 0.22
same,Number of MPCE/PCE Scored,"[2]; 1000 mg/kg, 48-h timepoint",1/10000
same,PCE/Total Erythrocytes (Mean +/− SD),"[2]; 1000 mg/kg, 48-h timepoint",0.344 ± 0.04
same,Change from Control (%),"[2]; 1500 mg/kg, 24-h timepoint",−15%
same,Number of MPCE/1000 PCE (Mean +/− SD),"[2]; 1500 mg/kg, 24-h timepoint",0.4 ± 0.22
same,Number of MPCE/PCE Scored,"[2]; 1500 mg/kg, 24-h timepoint",4/10000
same,PCE/Total Erythrocytes (Mean +/− SD),"[2]; 1500 mg/kg, 24-h timepoint",0.499 ± 0.06
same,Change from Control (%),"[2]; 1500 mg/kg, 48-h timepoint",−39%
same,Number of MPCE/1000 PCE (Mean +/− SD),"[2]; 1500 mg/kg, 48-h timepoint",0.4 ± 0.42
same,Number of MPCE/PCE Scored,"[2]; 1500 mg/kg, 48-h timepoint",4/10000
same,PCE/Total Erythrocytes (Mean +/− SD),"[2]; 1500 mg/kg, 48-h timepoint",0.376 ± 0.05
same,Change from Control (%),"[2]; 2000 mg/kg, 24-h timepoint",−10%
same,Number of MPCE/1000 PCE (Mean +/− SD),"[2]; 2000 mg/kg, 24-h timepoint",0.2 ± 0.27
same,Number of MPCE/PCE Scored,"[2]; 2000 mg/kg, 24-h timepoint",2/10000
same,PCE/Total Erythrocytes (Mean +/− SD),"[2]; 2000 mg/kg, 24-h timepoint",0.531 ± 0.05
same,Change from Control (%),"[2]; 2000 mg/kg, 48-h timepoint",−32%
same,Number of MPCE/1000 PCE (Mean +/− SD),"[2]; 2000 mg/kg, 48-h timepoint",0.1 ± 0.22
same,Number of MPCE/PCE Scored,"[2]; 2000 mg/kg, 48-h timepoint",1/10000
same,PCE/Total Erythrocytes (Mean +/− SD),"[2]; 2000 mg/kg, 48-h timepoint",0.360 ± 0.03
same,genotoxicity in the in vivo micronucleus study,[2]; 125-2000 mg/kg,63415 is Negative for Genotoxicity
same,TNFα in BALF,[3]; 100 and 150 mg/kg doses,significant reduction
same,IL-12p40 in BALF,"[3]; all doses (30, 100, 150 mg/kg)",significant reduction
same,parent molecule remaining,[4],> 65%
same,IC50,RAW264.7 cells,125 nM
same,aqueous humor protein concentration,ocular inflammation,reduction in aqueous humor protein similar to that of the highest concentration of any of the other reference compounds
same,pIC50,[5],6.20
same,basic pulmonary endpoints,CD rats,did not produce any adverse effects
same,concentration at which increase in NQO1 enzymatic activity is evident,NQO1,7.8 nM
same,pEC50,[6],7.25
same,dose dependence of systemic exposure,"[7]; 3 to 100 mg/kg, suspension",dose-proportional increases in systemic exposure
same,exposure at higher doses,"[7]; 100 to 800 mg/kg in monkeys, 500 to 2000 mg/kg in rats",saturation of absorption at doses above 100 mg/kg
same,systemic exposure by sex,[7]; in vivo,generally similar in males and females
same,exposure after repeated daily oral administration vs single dose,"[7]; in vivo, po",≤ 2 fold
same,parent molecule remaining,[8],< 10%
same,TNFα in BALF,[9]; 10 mg/kg,Significant reductions
same,"IL-12p40, TNFα, and RANTES in BALF",[9]; 30 mg/kg,significant reductions
same,lung NQO1 enzyme activity and total GSH,[9]; 10 and 30 mg/kg,significant induction of NQO1 enzyme activity and increases in total GSH
same,"concentration at which induction of NQO1, HMOX1, GCLM, TXNRD1 is evident",Nrf2 target genes,≤ 15.6 nM
same,hamsters euthanized on Day 2 due to weight loss in excess of 20%,[10]; 100 mg/kg,two out of eight
same,duration of ulcerative mucositis,[10]; 30 and 100 mg/kg,significant reduction
same,percentage of animals with mucositis scores ≥3,"[10]; hamster, in vivo",dose-dependent decrease
same,levels in the CNS,[11],Notable levels were observed in the CNS
